In ChEMBL document CHEMBL5608235, “Tricyclic Benzo[1,3]oxazinyloxazolidinones as Potent Antibacterial Agents against Drug-Resistant Pathogens” (J Med Chem, 2024):
In brackets after ≈: the same amount, converted by molar mass.

How the values were obtained:
[1] = test system: Mycobacterium tuberculosis; assay: Antibacterial activity against isoniazid/streptomycin/rifampicin/ethambutol/rifabutin/para-axminosalicylate/ofloxacin resistant Mycobacterium tuberculosis 13946 assessed as inhibition of bacterial growth incubated for 7 days by alamar blue assay; assay type: functional; settings: Mycobacterium tuberculosis, 13946, 168 h; time 7 day
[2] = test system: Mycobacterium tuberculosis; assay: Antibacterial activity against isoniazid/streptomycin/rifampicin/ethambutol/para-axminosalicylate/prothionamide/capreomycin resistant Mycobacterium tuberculosis 14862 assessed as inhibition of bacterial growth incubated for 7 days by alamar blue assay; assay type: functional; settings: Mycobacterium tuberculosis, 14862, 168 h; time 7 day

CC(=O)NC[C@@H]1OC(=O)N2Cc3c(cc(F)c(-c4ccc(-c5nnn(C)n5)nc4)c3F)O[C@@H]12
MIC [1]: 0.28 µg/mL (≈ 0.612 µM) | MIC [2]: 0.33 µg/mL (≈ 0.721 µM)

CC(=O)NC[C@@H]1OC(=O)N2Cc3cc(-c4ccc(C#N)cc4)c(F)cc3O[C@@H]12
MIC [1]: 0.11 µg/mL (≈ 0.288 µM) | MIC [2]: 0.41 µg/mL (≈ 1.08 µM)

COC(=O)NC[C@@H]1OC(=O)N2Cc3cc(-c4ccc(C#N)cc4)c(F)cc3O[C@@H]12
MIC [1]: 0.56 µg/mL (≈ 1.41 µM) | MIC [2]: 0.24 µg/mL (≈ 0.604 µM)

CC(=O)NC[C@@H]1OC(=O)N2Cc3c(cc(F)c(-c4ccc(C#N)nc4)c3F)O[C@@H]12
MIC [1]: 0.48 µg/mL (≈ 1.2 µM) | MIC [2]: 0.47 µg/mL (≈ 1.17 µM)

COC(=O)NC[C@@H]1OC(=O)N2Cc3cc(-c4ccc(-c5nnn(C)n5)nc4)c(F)cc3O[C@@H]12
MIC [1]: 0.39 µg/mL (≈ 0.856 µM) | MIC [2]: 0.22 µg/mL (≈ 0.483 µM)

COC(=O)NC[C@@H]1OC(=O)N2Cc3cc(-c4ccc(C#N)nc4)c(F)cc3O[C@@H]12
MIC [1]: 0.87 µg/mL (≈ 2.18 µM) | MIC [2]: 0.6 µg/mL (≈ 1.51 µM)

NNC(=O)c1ccncc1 [ISONIAZID]
MIC [1]: 4.78 µg/mL (≈ 34.9 µM) | MIC [2]: > 10 µg/mL

CO[C@H]1/C=C/O[C@@]2(C)Oc3c(C)c(O)c4c(O)c(c(/C=N/N5CCN(C)CC5)c(O)c4c3C2=O)NC(=O)/C(C)=C\C=C\[C@H](C)[C@H](O)[C@@H](C)[C@@H](O)[C@@H](C)[C@H](OC(C)=O)[C@@H]1C [RIFAMPIN]
MIC [1]: > 10 µg/mL | MIC [2]: > 10 µg/mL
